Results as given in publication PMC4599563 (ACS Medicinal Chemistry Letters, 2015).

Molecular target: mouse SR-BI (Mus musculus, UniProt Q61009)
Test: [3H]cholesteryl ester uptake assay
Format: cell-based

Sequence of mouse SR-BI (Q61009 whole entry): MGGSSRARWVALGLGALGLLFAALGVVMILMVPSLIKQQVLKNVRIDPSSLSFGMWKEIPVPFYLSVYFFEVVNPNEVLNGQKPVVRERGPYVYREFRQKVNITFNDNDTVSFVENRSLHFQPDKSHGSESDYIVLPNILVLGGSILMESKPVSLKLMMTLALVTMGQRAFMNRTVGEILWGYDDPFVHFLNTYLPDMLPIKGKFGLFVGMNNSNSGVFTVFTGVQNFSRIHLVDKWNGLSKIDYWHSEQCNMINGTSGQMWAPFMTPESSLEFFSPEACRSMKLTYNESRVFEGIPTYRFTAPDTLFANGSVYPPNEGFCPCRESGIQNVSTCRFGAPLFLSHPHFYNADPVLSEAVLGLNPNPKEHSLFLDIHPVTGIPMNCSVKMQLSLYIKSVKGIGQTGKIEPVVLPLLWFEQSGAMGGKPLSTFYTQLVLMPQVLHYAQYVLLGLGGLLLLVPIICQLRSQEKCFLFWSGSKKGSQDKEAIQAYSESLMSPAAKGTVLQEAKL

COc1c(NC(=O)C(=O)c2ccc(OCCN3CCOCC3)c3ccccc23)cc(C(C)(C)C)cc1NS(C)(=O)=O [ITX-5061]
IC50: 940 nM
